Patent US12404283B2, “c-MYC mRNA translation modulators and uses thereof in the treatment of cancer” (Anima Biotech Inc., priority 2022, dated 2025)

test system: c-Myc; assay: c-Myc immunofluorescence assay; assay type: cell-based, human; conditions: A549 cells, 24 hours treatment, anti-c-Myc immunofluorescence
Outline: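 High-content imaging (20×) of PFA-fixed A549 cells immunostained for c-Myc with DAPI nuclei, after 24 h compound treatment at increasing concentrations. Per-cell c-Myc signal in identified cell regions was plotted against dose and fitted by logistic regression to give EC50.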

Q: With `CNC(=O)c1ccc(-c2cn3c(n2)sc2cc(C(=O)NCCCN4CCCCC4)ccc23)cc1` [compound 174, 2-(4-(methylcarbamoyl)phenyl)-N-(3-(piperidin-1-yl)propyl)benzo[d]imidazo [2,1-b]thiazole-7-carboxamide] as the compound, how does the “Myc Efficacy (−LogEC50)” value read?
A: +++ (+++ ≥6)

Q: Which “Myc Efficacy (−LogEC50)” value does the source give for `CNC(=O)c1ccc(-c2cn3c(n2)sc2cc(C(=O)NCCCN4CCNCC4)ccc23)cc1` [compound 175, 2-(4-(methylcarbamoyl)phenyl)-N-(3-(piperazin-1-yl)propyl)benzo[d]imidazo [2,1-b]thiazole-7-carboxamide] here?
A: − (− ≤3)

Q: `CNC(=O)c1ccc(-c2cn3c(n2)sc2cc(C(=O)NCC4CCN(C)C4)ccc23)cc1` (centres unmarked) [compound 176, 2-(4-(methylcarbamoyl)phenyl)-N-((1-methylpyrrolidin-3-yl)methyl)benzo[d]imidazo [2,1-b]thiazole-7-carboxamide] was tested. Which “Myc Efficacy (−LogEC50)” value did it give?
A: − (− ≤3)

Q: With `CCN(CCCNC(=O)c1ccc2c(c1)sc1nc(-c3cccc(C)c3)cn12)CC(F)(F)F` [compound 177, N-(3-(ethyl(2,2,2-trifluoroethyl)amino)propyl)-2-(m-tolyl)benzo[d]imidazo[2,1-b]thiazole-7-carboxamide] as the compound, how does the “Myc Efficacy (−LogEC50)” value read?
A: + (+ >3 and <5)

Q: With `Cc1cccc(-c2cn3c(n2)sc2cc(C(=O)NCCCNCC(F)(F)F)ccc23)c1` [compound 178, 2-(m-tolyl)-N-(3-((2,2,2-trifluoroethyl)amino)propyl) benzo[d]imidazo[2,1-b]thiazole-7-carboxamide] as the compound, how does the “Myc Efficacy (−LogEC50)” value read?
A: + (+ >3 and <5)

Q: For `CCN(CC)CCCNC(=O)c1ccc2c(c1)sc1nc(-c3ccc(N4CCCC4=O)cc3)cn12` [compound 179, N-(3-(diethylamino)propyl)-2-(4-(2-oxopyrrolidin-1-yl)phenyl)benzo[d]imidazo [2,1-b]thiazole-7-carboxamide], which “Myc Efficacy (−LogEC50)” value is on record?
A: + (+ >3 and <5)

Q: With `CCN(CC)CCCN(C)C(=O)c1ccc2c(c1)sc1nc(-c3ccc(C(=O)NC)cc3)cn12` [compound 180, N-(3-(diethylamino)propyl)-N-methyl-2-(4-(methylcarbamoyl)phenyl) benzo[d]imidazo[2,1-b]thiazole-7-carboxamide] as the compound, how does the “Myc Efficacy (−LogEC50)” value read?
A: + (+ >3 and <5)

Q: With `CCN(CC)CCCN(C)C(=O)c1ccc2c(c1)sc1nc(-c3cccc(C)c3)cn12` [compound 181, N-(3-(diethylamino)propyl)-N-methyl-2-(m-tolyl)benzo[d]imidazo[2,1-b]thiazole-7-carboxamide] as the compound, how does the “Myc Efficacy (−LogEC50)” value read?
A: ++ (++ ≥5 and <6)

Q: `CNC(=O)c1ccc(-c2cn3c(n2)sc2cc(C(=O)NC[C@H]4COCCO4)ccc23)cc1` [compound 182, (S)-N-((1,4-dioxan-2-yl)methyl)-2-(4-(methylcarbamoyl)phenyl) benzo[d]imidazo[2,1-b]thiazole-7-carboxamide] was tested. Which “Myc Efficacy (−LogEC50)” value did it give?
A: − (− ≤3)

Q: `CNC(=O)c1ccc(-c2cn3c(n2)sc2cc(C(=O)NCCN4CC5(COC5)C4)ccc23)cc1` [compound 183, N-(2-(2-oxa-6-azaspiro[3.3]heptan-6-yl)ethyl)-2-(4-(methylcarbamoyl)phenyl) benzo[d]imidazo[2,1-b]thiazole-7-carboxamide] was tested. Which “Myc Efficacy (−LogEC50)” value did it give?
A: + (+ >3 and <5)

Q: For `CNC(=O)c1ccc(-c2cn3c(n2)sc2cc(C(=O)NCCN4CCN(C)CC4)ccc23)cc1` [compound 184, 2-(4-(methylcarbamoyl)phenyl)-N-(2-(4-methylpiperazin-1-yl)ethyl)benzo[d]imidazo [2,1-b]thiazole-7-carboxamide], which “Myc Efficacy (−LogEC50)” value is on record?
A: + (+ >3 and <5)

Q: How did the “Myc Efficacy (−LogEC50)” value turn out when `CNC(=O)c1ccc(-c2cn3c(n2)sc2cc(C(=O)NC4CCNCC4)ccc23)cc1` [compound 185, 2-(4-(methylcarbamoyl)phenyl)-N-(piperidin-4-yl)benzo[d]imidazo[2,1-b]thiazole-7-carboxamide] was run?
A: ++ (++ ≥5 and <6)

Q: `CNC(=O)c1ccc(-c2cn3c(n2)sc2cc(C(=O)N[C@@H](C)COC)ccc23)cc1` [compound 186, (S)-N-(1-methoxypropan-2-(methylcarbamoyl)phenyl) benzo[d]imidazo[2,1-b]thiazole-7-carboxamide] was tested. Which “Myc Efficacy (−LogEC50)” value did it give?
A: + (+ >3 and <5)

Q: With `CNC(=O)c1ccc(-c2cn3c(n2)sc2cc(C(=O)NC(C)CCO)ccc23)cc1` (centres unmarked) [compound 187, N-(4-hydroxybutan-2-yl)-2-(4-(methylcarbamoyl)phenyl) benzo[d]imidazo[2,1-b]thiazole-7-carboxamide] as the compound, how does the “Myc Efficacy (−LogEC50)” value read?
A: − (− ≤3)

Q: For `CC[C@@H](CO)NC(=O)c1ccc2c(c1)sc1nc(-c3ccc(C(=O)NC)cc3)cn12` [compound 188, (S)-N-(1-hydroxybutan-2-yl)-2-(4-(methylcarbamoyl)phenyl) benzo[d]imidazo[2,1-b]thiazole-7-carboxamide], which “Myc Efficacy (−LogEC50)” value is on record?
A: + (+ >3 and <5)

Q: With `CNC(=O)c1ccc(-c2cn3c(n2)sc2cc(C(=O)NCCCOC)ccc23)cc1` [compound 189, N-(3-methoxypropyl)-2-(4-(methylcarbamoyl)phenyl) benzo[d]imidazo[2,1-b]thiazole-7-carboxamide] as the compound, how does the “Myc Efficacy (−LogEC50)” value read?
A: − (− ≤3)

Q: With `CNC(=O)c1ccc(-c2cn3c(n2)sc2cc(C(=O)NC4CCN(C(=O)C5CC5)CC4)ccc23)cc1` [compound 190, N-(1-(cyclopropanecarbonyl)piperidin-4-yl)-2-(4-(methylcarbamoyl)phenyl) benzo[d]imidazo[2,1-b]thiazole-7-carboxamide] as the compound, how does the “Myc Efficacy (−LogEC50)” value read?
A: + (+ >3 and <5)

Q: `CNC(=O)c1ccc(-c2cn3c(n2)sc2cc(C(=O)NCCC(=O)N4CCCCC4)ccc23)cc1` [compound 191, 2-(4-(methylcarbamoyl)phenyl)-N-(3-oxo-3-(piperidin-1-yl)propyl)benzo[d]imidazo [2,1-b]thiazole-7-carboxamide] was tested. Which “Myc Efficacy (−LogEC50)” value did it give?
A: + (+ >3 and <5)

Q: How did the “Myc Efficacy (−LogEC50)” value turn out when `CNC(=O)c1ccc(-c2cn3c(n2)sc2cc(C(=O)N[C@@H](CO)CC(C)C)ccc23)cc1` [compound 192, (R)-N-(1-hydroxy-4-methylpentan-2-yl)-2-(4-(methylcarbamoyl)phenyl) benzo[d]imidazo[2,1-b]thiazole-7-carboxamide] was run?
A: − (− ≤3)

Q: With `CCN(CCCN(C)C(=O)c1ccc2c(c1)sc1nc(-c3cccc(C)c3)cn12)CC(F)(F)F` [compound 193, N-(3-(ethyl(2,2,2-trifluoroethyl)amino)propyl) N-methyl-2-(m-tolyl)benzo[d]imidazo[2,1-b]thiazole-7-carboxamide] as the compound, how does the “Myc Efficacy (−LogEC50)” value read?
A: + (+ >3 and <5)

Q: With `CCN(CC)CCCNC(=O)c1ccc2c(c1)sc1nc(-c3cc(C)ccn3)cn12` [compound 194, N-(3-(diethylamino)propyl)-2-(4-methylpyridin-2-yl)benzo[d]imidazo[2,1-b]thiazole-7-carboxamide] as the compound, how does the “Myc Efficacy (−LogEC50)” value read?
A: + (+ >3 and <5)

Q: Which “Myc Efficacy (−LogEC50)” value does the source give for `CNC(=O)c1ccc(-c2cn3c(n2)sc2cc(C(=O)NCC4(O)COC4)ccc23)cc1` [compound 195, N-((3-hydroxyoxetan-3-yl)methyl)-2-(4-(methylcarbamoyl)phenyl) benzo[d]imidazo[2,1-b]thiazole-7-carboxamide] here?
A: − (− ≤3)

Q: How did the “Myc Efficacy (−LogEC50)” value turn out when `CNC(=O)c1ccc(-c2cn3c(n2)sc2cc(C(=O)NC[C@H]4CCNC[C@@H]4O)ccc23)cc1` [compound 196, N-(((3R,4R)-3-hydroxypiperidin-4-yl)methyl)-2-(4-(methylcarbamoyl)phenyl) benzo[d]imidazo[2,1-b]thiazole-7-carboxamide] was run?
A: + (+ >3 and <5)

Q: With `CNC(=O)c1ccc(-c2cn3c(n2)sc2cc(C(=O)NC(C)C(=O)N(C)C)ccc23)cc1` (centres unmarked) [compound 197, N-(1-(dimethylamino)-1-oxopropan-2-yl)-2-(4-(methylcarbamoyl)phenyl) benzo[d]imidazo[2,1-b]thiazole-7-carboxamide] as the compound, how does the “Myc Efficacy (−LogEC50)” value read?
A: + (+ >3 and <5)

Q: For `CNC(=O)c1ccc(-c2cn3c(n2)sc2cc(C(=O)NC4CN(C)C4)ccc23)cc1` [compound 198, N-(1-methylazetidin-3-yl)-2-(4-(methylcarbamoyl)phenyl) benzo[d]imidazo[2,1-b]thiazole-7-carboxamide], which “Myc Efficacy (−LogEC50)” value is on record?
A: + (+ >3 and <5)

Q: With `CNC(=O)c1ccc(-c2cn3c(n2)sc2cc(C(=O)NC4(CN)CCC4)ccc23)cc1` [compound 199, N-(1-(aminomethyl)cyclobutyl)-2-(4-(methylcarbamoyl)phenyl) benzo[d]imidazo[2,1-b]thiazole-7-carboxamide] as the compound, how does the “Myc Efficacy (−LogEC50)” value read?
A: + (+ >3 and <5)

Q: How did the “Myc Efficacy (−LogEC50)” value turn out when `CNC(=O)c1ccc(-c2cn3c(n2)sc2cc(C(=O)NCC[C@H](C)N)ccc23)cc1` [compound 200, (S)-N-(3-aminobutyl)-2-(4-(methylcarbamoyl)phenyl) benzo[d]imidazo[2,1-b]thiazole-7-carboxamide] was run?
A: + (+ >3 and <5)

Q: With `CNC(=O)c1ccc(-c2cn3c(n2)sc2cc(C(=O)NCCOC)ccc23)cc1` [compound 201, N-(2-methoxyethyl)-2-(4-(methylcarbamoyl)phenyl) benzo[d]imidazo[2,1-b]thiazole-7-carboxamide] as the compound, how does the “Myc Efficacy (−LogEC50)” value read?
A: + (+ >3 and <5)

Q: Which “Myc Efficacy (−LogEC50)” value does the source give for `CNC(=O)c1ccc(-c2cn3c(n2)sc2cc(C(=O)NCCc4cnn(C)c4)ccc23)cc1` [compound 202, N-(2-(1-methyl-1H-pyrazol-4-yl)ethyl)-2-(4-(methylcarbamoyl)phenyl) benzo[d]imidazo[2,1-b]thiazole-7-carboxamide] here?
A: − (− ≤3)

Q: With `CNC(=O)c1ccc(-c2cn3c(n2)sc2cc(C(=O)NCC(C)OC)ccc23)cc1` (centres unmarked) [compound 203, N-(2-methoxypropyl)-2-(4-(methylcarbamoyl)phenyl) benzo[d]imidazo[2,1-b]thiazole-7-carboxamide] as the compound, how does the “Myc Efficacy (−LogEC50)” value read?
A: + (+ >3 and <5)

Q: Which “Myc Efficacy (−LogEC50)” value does the source give for `CNC(=O)c1ccc(-c2cn3c(n2)sc2cc(C(=O)NCC4CCCO4)ccc23)cc1` (centres unmarked) [compound 204, 2-(4-(methylcarbamoyl)phenyl)-N-((tetrahydrofuran-2-yl)methyl)benzo[d]imidazo [2,1-b]thiazole-7-carboxamide] here?
A: + (+ >3 and <5)

Q: `CNC(=O)c1ccc(-c2cn3c(n2)sc2cc(C(=O)NC4CCCCC4N)ccc23)cc1` (centres unmarked) [compound 205, N-(2-aminocyclohexyl)-2-(4-(methylcarbamoyl)phenyl) benzo[d]imidazo[2,1-b]thiazole-7-carboxamide] was tested. Which “Myc Efficacy (−LogEC50)” value did it give?
A: + (+ >3 and <5)
